For data set [1], the system named is Mus musculus. Briefly: Emetic effect in DIO C57BL/6J mouse at 0.01 mg/kg, sc for 2 weeks. It is filed as ADME, organism-based. As to conditions: in vivo, 336 h.
Data set [2] can be described thus: Drug uptake in DIO C57BL/6J mouse serum at 0.01 mg/kg/day, sc for 2 weeks. It is filed as ADME, organism-based. The settings on record: read-out: Drug uptake.
Data set [3] has as its system Canis familiaris. Kind of data set: Emetic effect in dog at 0.003 mg/kg/day, sc as infusion for 8 hrs. It is filed as ADME, organism-based, Canis lupus familiaris. The settings on record: in vivo.
The nature of data set [4]: Cmax in dog at 0.01 mg/kg, sc administered as bolus. Format: ADME, organism-based, Canis lupus familiaris. Details: dose 0.01 mg/kg, route subcutaneous. The settings on record: in vivo.
Data set [5] is described as follows: Cmax in dog at 0.01 mg/kg/day, sc administered as infusion after 8 hrs. Format: ADME, organism-based, Canis lupus familiaris. More on the design: dose 0.01 mg/kg/day, route subcutaneous. The settings on record: in vivo.
A short description of data set [6]: Cmax in dog at 0.003 mg/kg/day, sc administered as infusion after 8 hrs. It is filed as ADME, organism-based, Canis lupus familiaris. Details: dose 0.003 mg/kg/day, route subcutaneous. The settings on record: in vivo.
The test system of data set [7] is Canis familiaris. Briefly: Emetic effect in Beagle dog at 0.01 mg/kg, sc measured after 1 hr. It is filed as ADME, organism-based, Canis lupus familiaris. As to conditions: in vivo.
The subject of data set [8] is Canis familiaris. Kind of data set: Emetic effect in Beagle dog at 0.01 mg/kg, sc measured after 1 to 24 hrs. The settings on record: in vivo. It is filed as organism-based, Canis lupus familiaris.
A short description of data set [9]: Tmax in Beagle dog at 0.01 mg/kg, sc. The settings on record: in vivo. Format: ADME, organism-based, Canis lupus familiaris.
Data set [10] can be described thus: Cmax in Beagle dog at 0.01 mg/kg, sc. It is filed as ADME, organism-based, Canis lupus familiaris. Details: dose 0.01 mg/kg, route subcutaneous. As to conditions: in vivo.

SMILES strings stand for the structures.

For `CC[C@](C)(NC(=O)[C@H]1C[C@H](O)CN1C(=O)[C@H](CO)NC(=O)c1c[nH]cn1)C(=O)N[C@@H](Cc1ccncc1)C(=O)N[C@@H](CC1CCCCC1)C(=O)N[C@@H](CC(C)(C)C)C(=O)N[C@@H](CC(N)=O)C(=O)N[C@@H](CCCCN)C(=O)NC(C)(C)C(=O)N[C@H](C(=O)N[C@@H](CCCNC(=N)N)C(=O)N[C@@H](CCC(N)=O)C(=O)N[C@@H](CCCNC(=N)N)C(=O)N[C@@H](CC1CCCCC1)C(N)=O)[C@@H](C)O`, the Activity entry in data set [1] was “Toxic”; in data set [3], “Toxic”; in data set [7], “Toxic”; in [8] it was “Non-Toxic”. Moreover, in data set [2], the concentration at 336 h is 0.225 ng/mL. Also, the maximum concentration (Cmax) (commonly the peak of the concentration-time curve) in data set [4] was 2.9 ng/mL; in data set [5], 0.74 ng/mL; in data set [6], 0.18 ng/mL; in data set [10], 2.9 ng/mL. The time to peak (Tmax) (commonly the time at which the peak concentration occurs) in data set [9] was 36 min.

The values above are taken from ChEMBL document CHEMBL4219053, “Antiobesity and emetic effects of a short-length peptide YY analog and its PEGylated and alkylated derivatives” (Bioorg Med Chem, 2018).
